Test results as given in patent US20080051429A1, “USE OF 4-AMINO-PIPERIDINES FOR TREATING SLEEP DISORDERS” (priority 2006, published 2008).

System: healthy volunteers
Experiment: Polysomnography (PSG) sleep study, double-blind, placebo-controlled
Type: in vivo, human
Protocol: A double-blind, placebo-controlled study involving 45 healthy volunteers ranging in age from 40 to 64 was conducted. […] All subjects underwent a two-night screening and baseline PSG evaluation. Additional PSG measurements were performed on the evening of study days 1 and 13. The subjects also completed a Continuous Performance Test (CPT) to assess the potential impact on daytime functioning. […] Of the 45 subjects, 20 of them also underwent a positron emission tomography (PET) study to measure 5-HT2A brain receptor occupancy.
During an assessment period, participants stayed overnight in the clinic for […] from Day −1 to Day 2 and one night from Day 13 to Day 14. Participants underwent a one-night PSG evaluation on the evening of Day 1, following the first dose of treatment and a final one-night PSG evaluation on the evening of Day 13. Between Day 3 and Day 12, participants were at home.
Polysomnographic recordings were performed from 23:00 to 07:00 on the following day.
The drug was dispensed as a solution (in vials) per os (p.o.), in a double-blind fashion as determined by the randomization schedule. The content of the vials was completely consumed followed by the consumption of one vial of water.
Data Analysis: A multivariate analyses of variance (MANOVA) with 5 clusters of sleep parameters as dependent variables (sleep continuity architecture and profile parameters for the visual analysis, and NREM and REM parameters for the spectral power analysis as shown in Table 1) was conducted initially. Change from baseline to the last day of drug administration was assessed by an analysis of covariance with repeated measures (ANCOVA®), with the baseline variables as covariates, to detect group differences (drug at each dose versus placebo) in the PSG sleep findings. For each ANCOVA, two main effects (Treatment, 4 levels, and Study Day, 2 levels) and their interaction were analyzed. Drug to placebo contrasts were calculated as a whole (Day 1 and Day 13 combined) as well as separately for each Study Day. Change from baseline to the last day of drug administration, by group, on the results of the CPT was also analyzed. Additional pharmacodynamic analysis, including the electrographic results obtained on Study Day 1, was performed. SAS® Version 8.2 was used for non-pharmacokinetic parameters and WinNonLin V4.0 was used to compute all pharmacokinetic parameters.

**Q.** With CC(C)COc1ccc(CNC(=O)N(Cc2ccc(F)cc2)C2CCN(C)CC2)cc1 [N-(1-methylpiperidin-4-yl)-N-(4-fluorophenylmethyl)-N′-(4-(2-methylpropyloxy)phenylmethyl)carbamide] as the compound, how does the “Change in Slow Wave Sleep From Baseline” value (1 mg, Day 1) read?
**A.** 6.4 min

**Q.** What about the “Change in Slow Wave Sleep From Baseline, Percentage” value (“Change … Percentage” below) (1 mg, Day 1) of the same compound?
**A.** 10%

**Q.** And the “Duration (min) of wake after sleep onset” value (1 mg, Day 1)?
**A.** 47.67 min

**Q.** What about the “Number of awakenings after sleep onset” value (1 mg, Day 1) of the same compound?
**A.** 20.22

**Q.** What about the SWS duration (1 mg, Day 1) of the same compound?
**A.** 69.78 min

**Q.** What about the “Change in Slow Wave Sleep From Baseline” value (1 mg, Day 13) of the same compound?
**A.** 5.4 min

**Q.** And the “Change … Percentage” value (1 mg, Day 13)?
**A.** 9%

**Q.** And the “Duration (min) of wake after sleep onset” value (1 mg, Day 13)?
**A.** 40.06 min

**Q.** What about the “Number of awakenings after sleep onset” value (1 mg, Day 13) of the same compound?
**A.** 20.78

**Q.** And the SWS duration (1 mg, Day 13)?
**A.** 68.78 min

**Q.** And the NREM sleep % (2.5 mg, C)?
**A.** ↑ (↑, <.05)

**Q.** And the NREM sleep duration (2.5 mg, C)?
**A.** ↑ (↑, <.05)

**Q.** And the “SWS 2nd third” value (2.5 mg, C)?
**A.** ↑↑ (↑↑, <.01)

**Q.** And the SWS % (2.5 mg, C)?
**A.** ↑↑ (↑↑, <.01)

**Q.** What about the “Stage 3%” value (2.5 mg, C) of the same compound?
**A.** ↑ (↑, <.05)

**Q.** And the “Stage 3 duration” value (2.5 mg, C)?
**A.** ↑ (↑, <.05)

**Q.** And the “Stage 4%” value (2.5 mg, C)?
**A.** ↑ (↑, <.05)

**Q.** And the “Stage 4 duration” value (2.5 mg, C)?
**A.** ↑ (↑, <.05)

**Q.** And the “SWS 2nd third” value (2.5 mg, D1)?
**A.** ↑ (↑, <.05)

**Q.** And the SWS % (2.5 mg, D1)?
**A.** ↑ (↑, <.05)

**Q.** What about the “Stage 3%” value (2.5 mg, D1) of the same compound?
**A.** ↑ (↑, <.05)

**Q.** And the “Stage 3 duration” value (2.5 mg, D1)?
**A.** ↑ (↑, <.05)

**Q.** What about the NREM sleep % (2.5 mg, D13) of the same compound?
**A.** ↑↑ (↑↑, <.01)

**Q.** What about the NREM sleep duration (2.5 mg, D13) of the same compound?
**A.** ↑ (↑, <.05)

**Q.** And the “Change in Slow Wave Sleep From Baseline” value (2.5 mg, Day 1)?
**A.** 21.8 min

**Q.** And the “Change … Percentage” value (2.5 mg, Day 1)?
**A.** 40%

**Q.** And the “Duration (min) of wake after sleep onset” value (2.5 mg, Day 1)?
**A.** 51.00 min

**Q.** And the “Number of awakenings after sleep onset” value (2.5 mg, Day 1)?
**A.** 21.44

**Q.** And the SWS duration (2.5 mg, Day 1)?
**A.** 75.83 min

**Q.** What about the “Change in Slow Wave Sleep From Baseline” value (2.5 mg, Day 13) of the same compound?
**A.** 19.6 min

**Q.** What about the “Change … Percentage” value (2.5 mg, Day 13) of the same compound?
**A.** 36%

**Q.** And the “Duration (min) of wake after sleep onset” value (2.5 mg, Day 13)?
**A.** 30.44 min

**Q.** And the “Number of awakenings after sleep onset” value (2.5 mg, Day 13)?
**A.** 19.78

**Q.** What about the SWS duration (2.5 mg, Day 13) of the same compound?
**A.** 73.61 min

**Q.** And the “SWS 1st third” value (5 mg, C)?
**A.** ↑↑ (↑↑, <.01)

**Q.** And the “SWS 2nd third” value (5 mg, C)?
**A.** ↑↑ (↑↑, <.01)

**Q.** And the SWS % (5 mg, C)?
**A.** ↑↑ (↑↑, <.01)

**Q.** What about the “Stage 1%” value (5 mg, C) of the same compound?
**A.** ↓ (↓, <.05)

**Q.** And the “Stage 2%” value (5 mg, C)?
**A.** ↓ (↓, <.05)

**Q.** And the “Stage 3%” value (5 mg, C)?
**A.** ↑ (↑, <.05)

**Q.** And the “Stage 3 duration” value (5 mg, C)?
**A.** ↑ (↑, <.05)

**Q.** What about the “Stage 4%” value (5 mg, C) of the same compound?
**A.** ↑↑ (↑↑, <.01)

**Q.** And the “Stage 4 duration” value (5 mg, C)?
**A.** ↑↑ (↑↑, <.01)

**Q.** What about the “SWS 1st third” value (5 mg, D1) of the same compound?
**A.** ↑↑ (↑↑, <.01)

**Q.** And the SWS % (5 mg, D1)?
**A.** ↑↑ (↑↑, <.01)

**Q.** What about the “Stage 1%” value (5 mg, D1) of the same compound?
**A.** ↓ (↓, <.05)

**Q.** And the “Stage 2%” value (5 mg, D1)?
**A.** ↓ (↓, <.05)

**Q.** What about the “Stage 3%” value (5 mg, D1) of the same compound?
**A.** ↑ (↑, <.05)

**Q.** What about the “Stage 3 duration” value (5 mg, D1) of the same compound?
**A.** ↑ (↑, <.05)

**Q.** What about the “Stage 4%” value (5 mg, D1) of the same compound?
**A.** ↑↑ (↑↑, <.01)

**Q.** What about the “Stage 4 duration” value (5 mg, D1) of the same compound?
**A.** ↑↑ (↑↑, <.01)

**Q.** And the “SWS 1st third” value (5 mg, D13)?
**A.** ↑ (↑, <.05)

**Q.** What about the “SWS 2nd third” value (5 mg, D13) of the same compound?
**A.** ↑ (↑, <.05)

**Q.** And the SWS % (5 mg, D13)?
**A.** ↑↑ (↑↑, <.01)

**Q.** What about the “Stage 4%” value (5 mg, D13) of the same compound?
**A.** ↑↑ (↑↑, <.01)

**Q.** And the “Stage 4 duration” value (5 mg, D13)?
**A.** ↑↑ (↑↑, <.01)

**Q.** What about the “Change in Slow Wave Sleep From Baseline” value (5 mg, Day 1) of the same compound?
**A.** 37.3 min

**Q.** What about the “Change … Percentage” value (5 mg, Day 1) of the same compound?
**A.** 65%

**Q.** And the “Duration (min) of wake after sleep onset” value (5 mg, Day 1)?
**A.** 64.56 min

**Q.** And the “Number of awakenings after sleep onset” value (5 mg, Day 1)?
**A.** 20.67

**Q.** And the SWS duration (5 mg, Day 1)?
**A.** 94.89 min

**Q.** And the “Change in Slow Wave Sleep From Baseline” value (5 mg, Day 13)?
**A.** 41.9 min

**Q.** What about the “Change … Percentage” value (5 mg, Day 13) of the same compound?
**A.** 73%

**Q.** And the “Duration (min) of wake after sleep onset” value (5 mg, Day 13)?
**A.** 43.89 min

**Q.** What about the “Number of awakenings after sleep onset” value (5 mg, Day 13) of the same compound?
**A.** 21.78

**Q.** And the SWS duration (5 mg, Day 13)?
**A.** 99.56 min

**Q.** What about the “duration and proportion of wake after sleep onset” value (20 mg) of the same compound?
**A.** decreased

**Q.** What about the NREM sleep % (20 mg, C) of the same compound?
**A.** ↑↑ (↑↑, <.01)

**Q.** What about the NREM sleep duration (20 mg, C) of the same compound?
**A.** ↑ (↑, <.05)

**Q.** And the “SWS 1st third” value (20 mg, C)?
**A.** ↑↑ (↑↑, <.01)

**Q.** And the “SWS 2nd third” value (20 mg, C)?
**A.** ↑↑ (↑↑, <.01)

**Q.** What about the SWS % (20 mg, C) of the same compound?
**A.** ↑↑ (↑↑, <.01)

**Q.** What about the “Stage 2 duration” value (20 mg, C) of the same compound?
**A.** ↓ (↓, <.05)

**Q.** What about the “Stage 3%” value (20 mg, C) of the same compound?
**A.** ↑ (↑, <.05)

**Q.** What about the “Stage 3 duration” value (20 mg, C) of the same compound?
**A.** ↑ (↑, <.05)

**Q.** And the “Stage 4%” value (20 mg, C)?
**A.** ↑↑ (↑↑, <.01)

**Q.** What about the “Stage 4 duration” value (20 mg, C) of the same compound?
**A.** ↑↑ (↑↑, <.01)

**Q.** And the “SWS 2nd third” value (20 mg, D1)?
**A.** ↑↑ (↑↑, <.01)

**Q.** What about the SWS % (20 mg, D1) of the same compound?
**A.** ↑↑ (↑↑, <.01)

**Q.** And the “Stage 2 duration” value (20 mg, D1)?
**A.** ↓ (↓, <.05)

**Q.** What about the “Stage 4%” value (20 mg, D1) of the same compound?
**A.** ↑↑ (↑↑, <.01)

**Q.** And the “Stage 4 duration” value (20 mg, D1)?
**A.** ↑↑ (↑↑, <.01)

**Q.** And the NREM sleep % (20 mg, D13)?
**A.** ↑↑ (↑↑, <.01)

**Q.** What about the “SWS 2nd third” value (20 mg, D13) of the same compound?
**A.** ↑↑ (↑↑, <.01)

**Q.** And the SWS % (20 mg, D13)?
**A.** ↑↑ (↑↑, <.01)

**Q.** What about the “Stage 4%” value (20 mg, D13) of the same compound?
**A.** ↑↑ (↑↑, <.01)

**Q.** What about the “Stage 4 duration” value (20 mg, D13) of the same compound?
**A.** ↑↑ (↑↑, <.01)

**Q.** And the “Change in Slow Wave Sleep From Baseline” value (20 mg, Day 1)?
**A.** 46.0 min

**Q.** And the “Change … Percentage” value (20 mg, Day 1)?
**A.** 55%

**Q.** And the “Duration (min) of wake after sleep onset” value (20 mg, Day 1)?
**A.** 33.44 min

**Q.** And the “Number of awakenings after sleep onset” value (20 mg, Day 1)?
**A.** 20.89

**Q.** What about the SWS duration (20 mg, Day 1) of the same compound?
**A.** 129.94 min

**Q.** What about the “Change in Slow Wave Sleep From Baseline” value (20 mg, Day 13) of the same compound?
**A.** 39.0 min

**Q.** What about the “Change … Percentage” value (20 mg, Day 13) of the same compound?
**A.** 46%

**Q.** And the “Duration (min) of wake after sleep onset” value (20 mg, Day 13)?
**A.** 29.89 min

**Q.** What about the “Number of awakenings after sleep onset” value (20 mg, Day 13) of the same compound?
**A.** 18.89

**Q.** And the SWS duration (20 mg, Day 13)?
**A.** 122.94 min

**Q.** What about the “REM sleep duration, proportion of REM sleep, REM sleep latency, REM activity or REM density” value (in words) of the same compound?
**A.** no effect

**Q.** And the “latency to sleep onset” value (in words)?
**A.** did not alter

**Q.** What about the “number of awakenings after sleep onset, drug to placebo contrasts” value (the 4 doses, most significant in 2.5 mg and 5 mg groups) of the same compound?
**A.** significantly decreased
